In patent publication US20080076664A1, “Fungicidal Compositions” (priority 2004, published 2008):
Values joined by “and” are separate entries in the source; they are usually repeats but may differ in a detail not shown here. Identical values can stand only once.

Columns and labels:
Alternaria solani = assay: Fungal growth assay, control of Alternaria solani (Example B-4 a); type: cell-based
Excerpt: (§1) The action to be expected E for a given active ingredient combination obeys the so-called COLBY formula and can be calculated as follows (COLBY, S. R. “Calculating synergistic and antagonistic responses of herbicide combination”. Weeds, Vol. 15, pages 20-22; 1967):
(§2) According to COLBY, the expected (additive) action of active ingredients A)+B) using p+q ppm of active ingredient is
(§3) If the action actually observed (O) is greater than the expected action (E), then the action of the combination is super-additive, i.e. there is a synergistic effect. In mathematical terms the synergism factor SF corresponds to O/E. In the agricultural practice an SF of ≧1.2 indicates significant improvement over the purely complementary addition of activities (expected activity), while an SF of ≦0.9 in the practical application routine signals a loss of activity compared to the expected activity.
(§4) Conidia—harvested from a freshly grown colony—of the fungus were directly mixed into nutrient broth (PDB potato dextrose broth). After placing a (DMSO) solution of the test compounds into a microtiter plate (96-well format) the nutrient broth containing the fungal spores was added. […] The fungicide interactions in the combinations are calculated according to COLBY method.

Leptosphaeria nodorum = assay: Fungal growth assay, control of Leptosphaeria nodorum (Example B-8); type: cell-based
Excerpt: as §1, §2, §3
Action Against Leptosphaeria nodorum (Glume Blotch)—Fungal Growth Assay
as §4, with “Conidia of” for “Conidia—harvested from a freshly grown colony—of”, “fungus from cryogenic storage” for “fungus”

[1] = component B) alone, 0.002 ppm [mg/L]
[2] = component B) alone, 0.067 ppm [mg/L]
[3] = component B) alone, 0.600 ppm [mg/L]
[4] = component B) alone, 0.007 ppm [mg/L]
[5] = component B) alone, 0.022 ppm [mg/L]
[6] = Cpd Ia alone, 0.0001 ppm [mg/L]
[7] = Cpd Ia alone, 0.0003 ppm [mg/L]
[8] = Cpd Ia alone, 0.0074 ppm [mg/L]

Structure (SMILES)	Observed control in % (% Cobs) (Alternaria solani; [1])	Observed control in % (% Cobs) (Alternaria solani; [2])	Observed control in % (% Cobs) (Alternaria solani; [3])	Observed control in % (% Cobs) (Leptosphaeria nodorum; [4])	Observed control in % (% Cobs) (Leptosphaeria nodorum; [5])	Observed control in % (% Cobs) (Alternaria solani; [5])	Observed control in % (% Cobs) (Leptosphaeria nodorum; [1])	Observed control in % (% Cobs) (Leptosphaeria nodorum; [2])	Observed control in % (% Cobs) (Alternaria solani; [4])	other results
CC(Cc1ccc(C(C)(C)C)cc1)CN1CCCCC1 (stereo not drawn) [Fenpropidin]	0%	0%	0%	4%	0%					
CO/C=C(/C(=O)OC)c1ccccc1Oc1cc(Oc2ccccc2C#N)ncn1 [Azoxystrobin]		31%		14%		0%	5%			
N#Cc1c(Cl)c(Cl)c(Cl)c(C#N)c1Cl [Chlorotalonil, Chlorothalonil]	9%		6%	0%	0%		1%	6%		
N#Cc1c[nH]cc1-c1cccc2c1OC(F)(F)O2 [Fludioxonil]	0%	25%				0%	7%	9%	0%	
Cn1cc(C(=O)Nc2ccccc2-c2ccc(C#CC(C)(C)C)cc2)c(C(F)F)n1 [Cpd Ia]										Observed control in % (% Cobs) (Alternaria solani; [6]): 6% and 0%; Observed control in % (% Cobs) (Alternaria solani; [7]): 6% and 0% and 4%; Observed control in % (% Cobs) (Alternaria solani; Cpd Ia alone, 0.0008 ppm [mg/L]): 0%; Observed control in % (% Cobs) (Alternaria solani; [8]): 40% and 46% and 27%; Observed control in % (% Cobs) (Alternaria solani; Cpd Ia alone, 0.0667 ppm [mg/L]): 50% and 60%; Observed control in % (% Cobs) (Leptosphaeria nodorum; [6]): 0% and 2%; Observed control in % (% Cobs) (Leptosphaeria nodorum; [7]): 0%; Observed control in % (% Cobs) (Leptosphaeria nodorum; Cpd Ia alone, 0.0025 ppm [mg/L]): 0%; Observed control in % (% Cobs) (Leptosphaeria nodorum; [8]): 0%; Observed control in % (% Cobs) (Leptosphaeria nodorum; Cpd Ia alone, 0.0222 ppm [mg/L]): 9% and 0% and 5% and 6%; Observed control in % (% Cobs) (Leptosphaeria nodorum; Cpd Ia alone, 0.2000 ppm [mg/L]): 32% and 30%
CC(C1CC1)C(O)(Cn1cncn1)c1ccc(Cl)cc1 (stereo not drawn) [Cyproconazole]	3%		15%	0%			3%	4%	0%	
CCCC1COC(Cn2cncn2)(c2ccc(Cl)cc2Cl)O1 (stereo not drawn) [Propiconazole]					11%		12%		0%	
Cc1cc(C2CC2)nc(Nc2ccccc2)n1 [Cyprodinil]	3%	30%				0%			0%	
